Consider 10 compounds from paper PMC6409468, “Isolation and identification of angiotensin I-converting enzyme inhibitory peptides derived from thermolysin-injected beef M. longissimus” (Asian-Australasian Journal of Animal Sciences, 2018).

This experiment addresses T1, ACE (from rabbit lung) (Oryctolagus cuniculus, UniProt P12822).
T1 construct: ACE (peptidyldipeptide hydrolase from rabbit lung acetone extract); purchased Sigma; host or cells: rabbit lung (acetone extract)
T1 sequence (P12822 34-1310): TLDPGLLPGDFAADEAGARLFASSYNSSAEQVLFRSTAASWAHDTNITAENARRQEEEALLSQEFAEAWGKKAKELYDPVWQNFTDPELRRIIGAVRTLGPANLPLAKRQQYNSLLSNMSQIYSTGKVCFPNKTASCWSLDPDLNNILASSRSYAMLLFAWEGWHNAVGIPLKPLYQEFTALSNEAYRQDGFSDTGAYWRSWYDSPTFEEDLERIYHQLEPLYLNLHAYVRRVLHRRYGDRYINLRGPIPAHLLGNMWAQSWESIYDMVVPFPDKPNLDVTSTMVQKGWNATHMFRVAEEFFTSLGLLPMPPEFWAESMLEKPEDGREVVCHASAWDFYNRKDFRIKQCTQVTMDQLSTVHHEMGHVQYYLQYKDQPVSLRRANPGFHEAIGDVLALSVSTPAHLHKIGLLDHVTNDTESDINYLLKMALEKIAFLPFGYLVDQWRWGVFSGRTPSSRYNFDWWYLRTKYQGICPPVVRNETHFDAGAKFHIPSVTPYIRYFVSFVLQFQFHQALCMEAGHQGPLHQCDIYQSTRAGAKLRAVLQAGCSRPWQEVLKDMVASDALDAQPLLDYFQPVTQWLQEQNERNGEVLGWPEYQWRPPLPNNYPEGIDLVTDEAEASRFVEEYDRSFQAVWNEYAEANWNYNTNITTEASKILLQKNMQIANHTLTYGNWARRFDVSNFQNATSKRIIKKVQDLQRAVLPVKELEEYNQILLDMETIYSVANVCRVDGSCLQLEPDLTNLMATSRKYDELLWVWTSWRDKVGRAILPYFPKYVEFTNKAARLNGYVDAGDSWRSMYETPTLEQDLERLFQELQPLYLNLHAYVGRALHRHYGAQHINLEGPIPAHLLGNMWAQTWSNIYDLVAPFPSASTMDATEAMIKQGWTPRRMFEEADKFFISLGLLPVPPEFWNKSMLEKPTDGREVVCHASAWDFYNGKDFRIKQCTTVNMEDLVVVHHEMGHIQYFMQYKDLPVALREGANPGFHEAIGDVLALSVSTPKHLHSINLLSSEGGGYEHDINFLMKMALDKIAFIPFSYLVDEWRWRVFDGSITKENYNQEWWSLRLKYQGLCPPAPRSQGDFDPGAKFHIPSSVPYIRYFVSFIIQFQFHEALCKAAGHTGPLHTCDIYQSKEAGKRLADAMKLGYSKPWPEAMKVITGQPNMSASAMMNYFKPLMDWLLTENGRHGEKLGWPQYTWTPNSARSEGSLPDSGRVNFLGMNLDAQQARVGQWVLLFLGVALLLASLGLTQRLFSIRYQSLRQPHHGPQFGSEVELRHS
The experiment in a line: ACE inhibitory activity, spectrophotometric method (HHL substrate, hippuric acid at 228 nm). It counts as biochemical. To be noted: chemically synthesized peptides. How it is done: ACE inhibitory activity determination was achieved using the spectrophotometric method described by Cushman and Cheung. For each assay, 100 μL of HHL (12.5 mM in 0.05 M sodium borate buffer) was incubated at 37°C for 5 min. After incubation, 50 μL of bovine peptide extracts and 150 μL of ACE (peptidyldipeptide hydrolase from rabbit lung acetone extract) were added and the mixture incubated for 1 h. The enzymatic reaction was stopped by adding 250 μL of 0.5 N HCl. The hippuric acid generated by the action of the angiotensin-converting enzyme on HHL was extracted from the acidified solution into 1 mL ethyl acetate by vortex mixing for 15 s. This was centrifuged at 3,290×g for 10 min at 4°C, and a 0.7 mL aliquot of each ethyl acetate layer was transferred to clean tubes and evaporated by heating at 95°C for 20 min in a water bath. The hippuric acid was redissolved in 3 mL of 1 M NaCl, and the amount formed was determined by absorbance at 228 nm. The IC50 value, defined as the concentration of a peptide that inhibits 50% of the ACE activity, was determined by measuring the ACE inhibitory activity and the peptide contents of each of the extracts after regression analysis. ACE inhibitory activity (%) was determined using the equation:
ACE inhibitory activity (%)=[1-(S-SC)/(B-BC)]×100
where S and B are optical density (OD) values for the sample and blank, respectively, and SC and BC are the OD values for the sample control and blank, respectively.

pIC50: −log10 of the molar value. Residues, ends and D or L forms follow the SMILES beside them. No end group written: not given here.

In turn, `CC(C)C[C@H](N)C(=O)N[C@@H](CO)C(=O)N[C@@H](Cc1c[nH]c2ccccc12)C(=O)O` [Leu-Ser-Trp] (H-Leu-Ser-Trp-OH) gave a negative-log IC50 (pIC50) of 3.05.

Compound `CSCC[C@H](N)C(=O)N[C@@H](C)C(=O)N[C@@H](CC(=O)O)C(=O)N[C@@H](C)C(=O)O` [Met-Ala-Asp-Ala] (H-MADA-OH) showed a negative logarithm of the IC50 (pIC50) of 2.23.

Compound `N[C@@H](Cc1ccccc1)C(=O)NCC(=O)N[C@@H](Cc1ccc(O)cc1)C(=O)O` [Phe-Gly-Tyr] (H-Phe-Gly-Tyr-OH) showed a pIC50 of 2.57.

`N=C(N)NCCC[C@H](NC(=O)[C@@H](N)Cc1ccc(O)cc1)C(=O)N[C@@H](CCC(N)=O)C(=O)O` [Tyr-Arg-Gln] (H-Tyr-Arg-Gln-OH) gave a pIC50 of 2.51.

For the compound `N[C@@H](Cc1ccc(O)cc1)C(=O)NCC(=O)O` [Tyr-Gly], the pIC50 was 1.90.

`NC(=O)C[C@H](NC(=O)[C@H](Cc1ccccc1)NC(=O)[C@@H](N)Cc1ccc(O)cc1)C(=O)N[C@@H](CCC(=O)O)C(=O)O` [Tyr-Phe-Asn-Glu] (H-YFNE-OH): the pIC50 is 2.12.

In the case of `N[C@@H](Cc1ccc(O)cc1)C(=O)N[C@@H](Cc1ccc(O)cc1)C(=O)O` [Tyr-Tyr] (H-Tyr-Tyr-OH), the pIC50 is 2.07.

Take `CC(C)[C@H](N)C(=O)N[C@@H](CO)C(=O)N[C@@H](CO)C(=O)N[C@H](C(=O)O)C(C)C` [Val-Ser-Ser-Val] (H-VSSV-OH): the pIC50 was 2.07.

As to LWHHT [Leu-Trp-His- His-Thr], the pIC50 was 2.28.

As to QPSGSQ [Gln-Pro-Ser-Gly-Ser-Gln], the pIC50 was 2.06.
